The values that follow come from patent US20160002204A1 (Board of Regents, The University of Texas System, priority 2014, published 2016).

A value given as a limit tells only on which side of the number the result lay.

Experiment [1] addresses T1, GLS1 (purified recombinant human GAC) (Homo sapiens, UniProt O94925).
T1 sequence (O94925 55-598 isoform O94925-3 limits assumed): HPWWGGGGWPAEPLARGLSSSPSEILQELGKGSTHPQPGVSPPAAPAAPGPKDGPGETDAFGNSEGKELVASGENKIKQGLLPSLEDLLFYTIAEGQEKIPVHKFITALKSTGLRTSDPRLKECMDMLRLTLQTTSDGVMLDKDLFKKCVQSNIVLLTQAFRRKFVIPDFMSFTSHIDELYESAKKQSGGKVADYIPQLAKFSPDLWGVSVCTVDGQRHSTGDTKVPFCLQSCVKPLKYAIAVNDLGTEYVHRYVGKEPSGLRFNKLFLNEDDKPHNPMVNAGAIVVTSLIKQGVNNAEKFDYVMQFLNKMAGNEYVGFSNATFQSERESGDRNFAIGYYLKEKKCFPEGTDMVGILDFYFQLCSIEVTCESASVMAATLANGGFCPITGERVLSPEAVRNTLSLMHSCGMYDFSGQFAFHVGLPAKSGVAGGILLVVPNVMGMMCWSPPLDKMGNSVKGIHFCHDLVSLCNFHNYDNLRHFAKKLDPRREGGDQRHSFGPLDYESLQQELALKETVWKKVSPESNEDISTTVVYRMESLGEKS
The experiment in a line: GLS1 enzymatic activity assay (dual-coupled, Amplex UltraRed/resorufin). In kind it is biochemical. In outline:
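Recombinant human GAC (2 nM) preincubated with 50 mM potassium phosphate, then inhibitor (10 min each, RT); 1 mM glutamine, pH 7.4 Hepes buffer, 1% DMSO. Glutamate coupled via glutamate oxidase/HRP to resorufin (Ex 530/Em 590), kinetic or 20-min endpoint; IC50 by four-parameter logistic fit.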

Experiment [2] relates to A549 cells. Description: A549 proliferation (viability) assay, Cell Titer Fluor, 72 hours. As to conditions: Homo sapiens. In kind it is cell-based. In outline:
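Compound was added to A549 cells (1000/well, pre-grown 24 h in RPMI 1640 plus 10% dialyzed FBS) at 0.5% DMSO and left 72 h under 37 °C, 5% CO2, ambient O2. Live-cell fluorescence (Cell Titer Fluor) gave the EC50.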

Broadly, the IC50 is the concentration that gives 50% inhibition. The EC50 is the concentration giving half of the maximal effect. `CC(C(=O)Nc1ccn(CCC(F)Cn2cc(C(=O)NCc3cccc(OC(F)(F)F)c3)nn2)c(=O)c1F)c1ccccc1` (stereo not drawn) [Example 316, 1-{2-fluoro-4-[3-fluoro-2-oxo-4-(2-phenylpropanamido)-1,2-dihydropyridin-1-yl]butyl}-N-{[3-(trifluoromethoxy)phenyl]methyl}-1H-1,2,3-triazole-4-carboxamide]: the IC50 in experiment [1] was less than 100 nM. This compound also came in with an EC50 in experiment [2] of less than 100 nM.

Consider `O=C(NCc1cc(C(F)(F)F)ccn1)c1cn(CC(F)CCn2ccc(NC(=O)[C@@H](O)c3ccccc3)c(F)c2=O)nn1` (stereo partly drawn) [Example 326, 1-(2-fluoro-4-{3-fluoro-4-[(2S)-2-hydroxy-2-phenylacetamido]-2-oxo-1,2-dihydropyridin-1-yl}butyl)-N-{[4-(trifluoromethyl)pyridin-2-yl]methyl}-1H-1,2,3-triazole-4-carboxamide], for which the IC50 in experiment [1] was less than 100 nM. Besides, the EC50 in experiment [2] was less than 100 nM.

In the case of `O=C(Cc1ccccc1)Nc1ccn(CCCCn2cc(C(=O)NCC3CCCCC3)nn2)c(=O)c1` [Example 36, N-(cyclohexylmethyl)-1-{4-[2-oxo-4-(2-phenylacetamido)-1,2-dihydropyridin-1-yl]butyl}-1H-1,2,3-triazole-4-carboxamide], the IC50 in experiment [1] is 100 to 500 nM. In experiment [2], this compound returned an EC50 of 500 to 5000 nM.

On to `Cc1ccc(CNC(=O)c2cn(CCCCn3ccc(NC(=O)Cc4ccccc4)cc3=O)nn2)cn1` [Example 158, N-[(6-methylpyridin-3-yl)methyl]-1-{4-[2-oxo-4-(2-phenylacetamido)-1,2-dihydropyridin-1-yl]butyl}-1H-1,2,3-triazole-4-carboxamide], for which the IC50 in experiment [1] is less than 100 nM. In experiment [2], this compound yielded an EC50 of 500 to 5000 nM.

As for `CS(=O)(=O)c1ccc(CNC(=O)c2cn(CCCCn3ccc(NC(=O)Cc4cccc(OC(F)(F)F)c4)cc3=O)nn2)cc1` [Example 68, N-[(4-methanesulfonylphenyl)methyl]-1-[4-(2-oxo-4-{2-[3-(trifluoromethoxy)phenyl]acetamido}-1,2-dihydropyridin-1-yl)butyl]-1H-1,2,3-triazole-4-carboxamide], the half-inhibitory concentration (IC50) in experiment [1] was less than 100 nM. The compound also had an EC50 in experiment [2] greater than 5000 nM.

For the compound `O=C(Cc1ccccc1)Nc1ccn(CC(F)CCn2cc(C(=O)NCc3ncccc3F)nn2)c(=O)c1` (stereo not drawn) [Example 149, 1-{3-fluoro-4-[2-oxo-4-(2-phenylacetamido)-1,2-dihydropyridin-1-yl]butyl}-N-[(3-fluoropyridin-2-yl)methyl]-1H-1,2,3-triazole-4-carboxamide], the IC50 in experiment [1] lay in the range of 100 to 500 nM. Also, the EC50 in experiment [2] was in the range of 500 to 5000 nM.

Turning to `O=C(Cc1ccccc1)Nc1ccn(CC(F)CCn2cc(C(=O)NCc3cccc(OC(F)(F)F)c3)nn2)c(=O)c1` (stereo not drawn) [Example 144, 1-{3-fluoro-4-[2-oxo-4-(2-phenylacetamido)-1,2-dihydropyridin-1-yl]butyl}-N-{[3-(trifluoromethoxy)phenyl]methyl}-1H-1,2,3-triazole-4-carboxamide], the half-maximal inhibitory concentration (IC50) in experiment [1] was less than 100 nM. Further, the EC50 in experiment [2] is less than 100 nM.

Regarding `O=C(CN1CCCC1)Nc1ccn(CCC(F)Cn2cc(C(=O)NCc3cccc(OC(F)(F)F)c3)nn2)c(=O)c1F` (stereo not drawn) [Example 293, 1-(2-fluoro-4-{3-fluoro-2-oxo-4-[2-(pyrrolidin-1-yl)acetamido]-1,2-dihydropyridin-1-yl}butyl)-N-{[3-(trifluoromethoxy)phenyl]methyl}-1H-1,2,3-triazole-4-carboxamide], in experiment [1], the IC50 was less than 100 nM. In experiment [2], this compound displayed an EC50 of 100 to 500 nM.

Take `O=C(Cc1ccccn1)Nc1ccn(CCCCc2nnc(C(=O)NCc3cccc(OC(F)(F)F)c3)s2)c(=O)c1` [Example 456, 5-(4-{2-oxo-4-[2-(pyridin-2-yl)acetamido]-1,2-dihydropyridin-1-yl}butyl)-N-{[3-(trifluoromethoxy)phenyl]methyl}-1,3,4-thiadiazole-2-carboxamide]: the IC50 in experiment [1] is less than 100 nM. Further, in experiment [2], the EC50 was 100 to 500 nM.
